Data: paper PMC6600881 (Gut Pathogens, 2019)

Molecular target: T1, P. aeruginosa PGDH (SerA) (Pseudomonas aeruginosa, UniProt Q9I6H5)
T1 construct: full-length ORF, N-terminal GST fusion (pGEX-6P-1), GST cut off on resin by protease, expressed in E. coli BL21, 44 kDa
T1 sequence (Q9I6H5 1-409): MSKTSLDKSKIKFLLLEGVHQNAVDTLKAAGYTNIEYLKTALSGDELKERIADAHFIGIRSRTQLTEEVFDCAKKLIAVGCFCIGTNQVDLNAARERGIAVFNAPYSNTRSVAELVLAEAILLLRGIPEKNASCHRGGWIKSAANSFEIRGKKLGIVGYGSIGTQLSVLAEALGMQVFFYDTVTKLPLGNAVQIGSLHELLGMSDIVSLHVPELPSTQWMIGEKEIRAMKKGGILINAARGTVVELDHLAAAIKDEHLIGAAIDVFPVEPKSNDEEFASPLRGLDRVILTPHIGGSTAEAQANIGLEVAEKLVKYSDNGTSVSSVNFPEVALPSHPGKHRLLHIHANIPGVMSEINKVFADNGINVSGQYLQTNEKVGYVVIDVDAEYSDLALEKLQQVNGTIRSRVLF
Assay: NADH formation at […] nm
Format: biochemical

| Compound | IC50 [mM] |
| --- | --- |
| N[C@@H](CO)C(=O)O [L-serine] | 0.63 |
| N[C@H](CO)C(=O)O [D-serine] | 76 |
